“And” between values parts separate entries of the source, which are not always exact repeats. Equal entries are not always repeated. Where two headings read alike, the source gives them in different places.

Assay [1] addresses T1, BuChE from equine serum (eqBuChE) (Equus caballus, UniProt P81908).
T1 construct: BuChE obtained from equine serum (eqBuChE); purchased Sigma–Aldrich (Steinheim, Germany); host or cells: horse serum
Description: biochemical. The conditions noted are these: for inhibition at 10 µM: 10 µM compound concentration, mean ± standard deviation, read-out: % Inhibition +/- SD (eqBuChE). As to the method:
(§1) Compounds selected through virtual screening were tested for their ability to inhibit the activity of selected biological targets. The cholinesterase-inhibitory potency of the compounds was evaluated according to Ellman’s method using AChE obtained from E. electricus (eeAChE) and BuChE obtained from equine serum (eqBuChE).
(§2) The following reagents were purchased from Sigma–Aldrich (Steinheim, Germany): 5,5′-dithiobis-(2-nitrobenzoic acid) (DNTB), acetylthiocholine iodide (ATC), butyrylthiocholine iodide (BTC), AChE from Electrophorus electricus, and BuChE from horse serum. […] The biological assay was performed using Ellman’s method which was modified for 24-well plates. For this assay, 25 µL of the tested compounds or water (in the blank samples) and 20 µL of the enzyme in 765 µL of the buffer were incubated for 5 min at 25 °C before starting the reaction. Then, 20 µL of DTNB and 20 µL of the ATC/BTC solutions were added. […] To determine the IC50 value, the absorbance measured at six different concentrations of the inhibitor was converted to % inhibition of the enzyme and plotted against the applied concentration of the inhibitor, using nonlinear regression (GraphPad Prism 5; GraphPad Software, San Diego, CA, USA). […] All the reactions were performed in triplicate. Data are expressed as the mean ± SEM.

The target of assay [2] is T2, AChE from Electrophorus electricus (eeAChE) (Electrophorus electricus, UniProt O42275).
T2 construct: purchased Sigma–Aldrich (Steinheim, Germany)
Briefly: biochemical. Conditions: for inhibition at 10 µM: read-out: % Inhibition +/- SD (eeAChE). As to the method: as §1, §2

For another assay, the target named is T3, eeAChE (Electrophorus electricus, UniProt O42275).
T3 construct: purchased Sigma–Aldrich (Steinheim, Germany)
Briefly: Kinetic studies of eeAChE inhibition (Lineweaver-Burk, Cornish-Bowden plots). Type of assay: biochemical. Conditions: substrate acetylthiocholine. As to the method: This was carried out by making use of the calculated values of Vmax and Km of the Michaelis–Menten kinetics and further through analyzing the Lineweaver–Burk and Cornish-Bowden reciprocal plots.
Kinetic studies were carried out by following Ellman’s method modified for 96-well plates, using different concentrations of the substrate. The stock solutions of ATC and BTC (0.02125 M) were prepared in water and diluted before use. The aqueous stock solutions of enzymes (5 U/mL) were diluted to a final concentration of 0.384 U/mL. For each concentration of the test compounds, ATC or BTC was used at a concentration of 0.3, 0.24, 0.18, 0.12, 0.06, and 0.04 mM in the wells. Lineweaver–Burk and Cornish-Bowden plots were generated using linear regression in GraphPad Prism 5 (GraphPad Software, San Diego, CA, USA). Each experiment was performed in triplicate.

For the next assay, the target named is T4, eqBuChE (Equus caballus, UniProt P81908).
T4 construct: BuChE obtained from equine serum (eqBuChE); purchased Sigma–Aldrich (Steinheim, Germany); host or cells: horse serum
Briefly: Kinetic studies of eqBuChE inhibition (Lineweaver-Burk, Cornish-Bowden plots). The conditions noted are these: substrate butyrylthiocholine. The format is biochemical. As to the method: […]. This was carried out by making use of the calculated values of Vmax and Km of the Michaelis–Menten kinetics and further through analyzing the Lineweaver–Burk and Cornish-Bowden reciprocal plots. […] […].
Kinetic studies were carried out by following Ellman’s method modified for 96-well plates, using different concentrations of the substrate. The stock solutions of ATC and BTC (0.02125 M) were prepared in water and diluted before use. […]. Lineweaver–Burk and Cornish-Bowden plots were generated using linear regression in GraphPad Prism 5 (GraphPad Software, San Diego, CA, USA). Each experiment was performed in triplicate.

[3] abbreviates: mean ± SEM of at least three experiments.
[4] abbreviates: read-out: IC50 eqBuChE [µM] +/- SEM.
The mark [5] stands for this setting: read-out: IC50 eeAChE [µM] +/- SEM.

T2 sequence (O42275 24-633): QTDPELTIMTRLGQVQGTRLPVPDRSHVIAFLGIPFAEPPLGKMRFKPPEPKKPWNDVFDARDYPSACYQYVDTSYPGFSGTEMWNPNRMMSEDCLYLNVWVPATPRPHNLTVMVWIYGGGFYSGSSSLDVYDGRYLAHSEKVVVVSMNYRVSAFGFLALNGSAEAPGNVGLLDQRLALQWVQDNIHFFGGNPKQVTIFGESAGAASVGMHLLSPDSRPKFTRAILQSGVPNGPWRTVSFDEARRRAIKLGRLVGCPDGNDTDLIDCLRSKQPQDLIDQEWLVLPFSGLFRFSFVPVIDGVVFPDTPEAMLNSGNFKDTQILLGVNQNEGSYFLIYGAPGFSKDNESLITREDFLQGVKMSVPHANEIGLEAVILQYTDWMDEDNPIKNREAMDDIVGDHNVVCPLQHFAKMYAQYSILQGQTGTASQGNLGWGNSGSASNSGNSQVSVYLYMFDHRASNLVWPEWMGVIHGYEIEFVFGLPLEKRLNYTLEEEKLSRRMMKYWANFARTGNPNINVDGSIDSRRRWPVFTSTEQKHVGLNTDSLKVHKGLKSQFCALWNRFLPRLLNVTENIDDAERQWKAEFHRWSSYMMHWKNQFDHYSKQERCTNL
T1 sequence (P81908 whole entry): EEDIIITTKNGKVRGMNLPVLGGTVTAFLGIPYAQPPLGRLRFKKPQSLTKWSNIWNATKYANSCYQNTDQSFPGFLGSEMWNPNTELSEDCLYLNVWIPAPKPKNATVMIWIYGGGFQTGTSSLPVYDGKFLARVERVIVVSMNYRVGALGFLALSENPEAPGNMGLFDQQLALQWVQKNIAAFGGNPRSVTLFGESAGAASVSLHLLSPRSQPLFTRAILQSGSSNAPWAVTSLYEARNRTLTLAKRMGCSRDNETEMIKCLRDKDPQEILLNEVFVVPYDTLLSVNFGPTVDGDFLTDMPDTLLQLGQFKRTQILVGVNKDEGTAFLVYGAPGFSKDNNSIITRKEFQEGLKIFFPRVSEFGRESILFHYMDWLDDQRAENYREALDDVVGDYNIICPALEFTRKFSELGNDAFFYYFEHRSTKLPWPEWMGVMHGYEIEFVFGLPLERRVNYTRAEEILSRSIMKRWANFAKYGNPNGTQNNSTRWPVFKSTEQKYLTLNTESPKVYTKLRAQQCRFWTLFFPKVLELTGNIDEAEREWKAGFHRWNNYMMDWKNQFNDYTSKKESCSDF
T3 sequence (O42275 24-633): as the sequence (O42275 24-633) above
T4 sequence (P81908 whole entry): as the sequence (P81908 whole entry) above

For the molecule `C(#CCN1c2ccncc2Sc2ncccc21)CN1CCCC1` [Compound 16], the inhibition at 10 µM worked out at 58.5 ± 9% in assay [1] and 21.9 ± 5.7% in assay [2]. The molecule further displayed an IC50 in assay [1] (setting [3]) of 10.4 ± 0.308 µM.
With `CN1CCCCC1CCN1c2ccncc2Sc2ncccc21` (stereo not shown) [Compound 17], the inhibition at 10 µM in assay [1] amounted to 16.1 ± 0.7%; in assay [2], 33 ± 4.5%.
As for `O=C1c2ccccc2C(=O)N1CCCN1c2cnccc2Sc2cccnc21` [Compound 10], the inhibition at 10 µM in assay [1] came out at 71.9 ± 4.3%; in assay [2], 49.6 ± 1.3%. Besides, the IC50 in assay [1] (setting [4]) was 3.67 ± 0.054 µM.
Regarding `C(#CCN1c2ccncc2Sc2ccncc21)CN1CCCCC1` [Compound 13], the inhibition at 10 µM in assay [1] was determined as 37.6 ± 1.6%; in assay [2], 51.6 ± 3.2%. Besides, the IC50 in assay [2] (setting [5]) was 11.3 ± 0.464 µM.
As for `CN1CCCCC1CCN1c2cccnc2Sc2cccnc21` (stereo not shown) [Compound 4], the inhibition at 10 µM in assay [1] amounted to 57 ± 7.4%; in assay [2], 22.4 ± 1.1%. Moreover, in assay [1] (setting [3]), the IC50 stood at 9.49 ± 0.33 µM.
In the case of `C(#CCN1c2cccnc2Sc2cccnc21)CN1CCCCC1` [Compound 2, 10-(4-Piperidin-1-yl-but-2-ynyl)-1,6-diazaphenothiazine], the inhibition at 10 µM was determined as 56.6 ± 2.4% in assay [1] and 60.3 ± 8.8% in assay [2]. Also, the IC50 in assay [1] (setting [3]) came to 8.94 ± 0.239 µM; in assay [2] (setting [3]) it was 8.31 ± 0.315 µM.
Turning to `NCCCN1c2ccc(F)cc2Sc2cc3ccccc3nc21` [Compound 21], the inhibition at 10 µM in assay [1] worked out at 76.3 ± 1.2%; in assay [2], 6.5 ± 2.8%. In addition, the IC50 in assay [1] (setting [3]) came to 2.51 ± 0.047 µM.
For `O=C1c2ccccc2C(=O)N1CCCN1c2cccnc2Sc2cccnc21` [Compound 5], in that order: 52.5 ± 5.9%, 7.3 ± 0.9% and 10.1 ± 0.441 µM.
For `Fc1ccc2c(c1)Sc1cc3ccccc3nc1N2CCN1CCCCC1` [Compound 23, 9-Fluoro-6-(1-piperidylethyl)quinobenzothiazine], the figures for the inhibition at 10 µM in assay [1] and in assay [2] were 97.7 ± 0.5% and 27 ± 2.8%, respectively. Further, the IC50 in assay [1] (setting [4]) is 0.46 µM and 0.463 µM.
As to `NCCCCN1c2ccc(F)cc2Sc2cc3ccccc3nc21` [Compound 22], the inhibition at 10 µM in assay [1] was 64.7 ± 1%; in assay [2], 2.3 ± 2.1%. The IC50 in assay [1] (setting [3]) was found to be 3.93 ± 0.196 µM.
Take `c1cnc2c(c1)Sc1ccncc1N2CCN1CCCCC1` [Compound 8]: the inhibition at 10 µM was 66 ± 3.4% in assay [1] and 33.5 ± 1.6% in assay [2]. The IC50 in assay [1] (setting [4]) was 4.44 ± 0.049 µM.
Turning to `CCN(CC)CC#CCN1c2ccncc2Sc2ncccc21` [Compound 15], the values for the inhibition at 10 µM in assay [1] and in assay [2] were 17.2 ± 7.3% and 10.1 ± 3.1%, respectively.
In the case of `C(#CCN1c2cccnc2Sc2cccnc21)CN1CCOCC1` [Compound 3, 10-(4-Morpholin-4-yl-but-2-ynyl)-1,6-diazaphenothiazine], the inhibition at 10 µM in assay [1] was determined as 63.6 ± 2.4%; in assay [2] it was 13.7 ± 1.5%. For the same molecule, the IC50 in assay [1] (setting [3]) was 9.25 ± 0.275 µM.
Take `CN1CCCCC1CCN1c2cnccc2Sc2cccnc21` (stereo not shown) [Compound 9]: the inhibition at 10 µM is 76.4 ± 0.2% in assay [1] and 58.1 ± 4.1% in assay [2]. The IC50 was 3.03 ± 0.072 µM in assay [1] (setting [4]) and 6.55 ± 0.177 µM in assay [2] (setting [5]).
On to `O=C1c2ccccc2C(=O)N1CCCN1c2ccncc2Sc2ncccc21` [Compound 18], for which the inhibition at 10 µM in assay [1] was found to be 30.5 ± 5.7%; in assay [2], 72.2 ± 0.7%. In assay [2] (setting [3]), this molecule showed an IC50 of 4.26 ± 0.078 µM.
For `CSc1ccc2c(c1)Sc1cc3ccccc3nc1N2CC#CCN1CCCC1` [Compound 25], the inhibition at 10 µM in assay [1] was 99.9 ± 0.7%; in assay [2], 78 ± 1.4%. The IC50 in assay [1] (setting [4]) came to 0.506 ± 0.014 µM; in assay [2] (setting [5]), 2.22 ± 0.062 µM.
With `CCN(CC)CC#CCN1c2ccc(SC)cc2Sc2cc3ccccc3nc21` [Compound 24, 6-(4-diethylaminobut-2-ynyl)-9-methylthioquinobenzothiazine], on eeAChE, the “type of eeAChE inhibition” value is “noncompetitive”. In addition, the figures for the inhibition at 10 µM in assay [1] and in assay [2] were 95.5 ± 0.8% and 83.4 ± 1.1%, respectively. Further, the IC50 was determined as 0.535 ± 0.013 µM in assay [1] (setting [4]) and 0.784 ± 0.018 µM in assay [2] (setting [5]). The “type of eqBuChE inhibition” value on eqBuChE is given as “noncompetitive”.
As to `C(#CCN1c2ccncc2Sc2ccncc21)CN1CCCC1` [Compound 12], the inhibition at 10 µM came to 31.4 ± 1.7% in assay [1] and 20.3 ± 1% in assay [2].
For `CN(C)CCCN1c2cnccc2Sc2cccnc21` [Compound 6], the inhibition at 10 µM turned out to be 85.8 ± 0.5% in assay [1] and 20.4 ± 3.6% in assay [2]. The IC50 in assay [1] (setting [4]) is 0.87 µM and 0.865 µM.
As for `Fc1ccc2c(c1)Sc1cc3ccccc3nc1N2` [Compound 19], the inhibition at 10 µM amounted to 81 ± 1.4% in assay [1] and 6.6 ± 1.3% in assay [2]. For the same molecule, the IC50 in assay [1] (setting [4]) was found to be 1.02 ± 0.028 µM.
Turning to `C(#CCN1c2cnccc2Sc2cccnc21)CN1CCCC1` [Compound 7], the inhibition at 10 µM was determined as 91.1 ± 0.8% in assay [1] and 57.3 ± 0.4% in assay [2]. Further, the IC50 in assay [1] (setting [4]) turned out to be 0.929 ± 0.016 µM; in assay [2] (setting [5]), 10 ± 0.604 µM.
On to `CCN(CC)CC#CCN1c2ccncc2Sc2ccncc21` [Compound 11], for which the inhibition at 10 µM turned out to be 20.7 ± 0.9% in assay [1] and 20.1 ± 1.4% in assay [2].
In the same order, the values of `CN1c2ccc(F)cc2Sc2cc3ccccc3nc21` [Compound 20] are 35.3 ± 12.3% and 3 ± 1.6%.
Consider `CCN(C)CC#CCN1c2ccncc2Sc2ncccc21` [Compound 14], for which the inhibition at 10 µM in assay [1] came to 20.4 ± 1.9%; in assay [2], 7.7 ± 2.1%.
Turning to `C(#CCN1c2cccnc2Sc2cccnc21)CN1CCCC1` [Compound 1, 10-(4-Pyrrolidin-1-yl-but-2-ynyl)-1,6-diazaphenothiazine], the inhibition at 10 µM in assay [1] came to 65.4 ± 3%; in assay [2] it was 45.4 ± 9.8%. Further, the IC50 in assay [1] (setting [3]) was 5.75 ± 0.164 µM.
